{
  "source": "patent US20060014704A1",
  "about": "“Compounds and their preparation for the treatment of Alzheimer's disease by inhibiting beta-amyloid peptide production” (priority 2004, published 2006)",
  "key": {"[1]": {"target": "T1, γ-secretase cleavage of p75 neurotrophin receptor (p75-ICD) (Homo sapiens, UniProt P49768)", "T1 construct": "Membrane fractions isolated from 293 cells overexpressing either APP (A), Notch-AE (B) or p75-AE (C); endogenous in cells; host or cells: 293 cells (membrane fractions); only the substrates APP, Notch-ΔE and p75-ΔE are overexpressed", "assay": "Cell-free generation of p75-ICD from membrane fractions of 293 cells overexpressing p75-AE", "format": "biochemical", "protocol": "Membrane fractions isolated from 293 cells overexpressing either APP (A), Notch-AE (B) or p75-AE (C) and incubated in the presence of indicated compounds: Compound E (CpdE, general γ-secretase inhibitor), Rgk351, Rk1 and sulindac sulfide (SS)."}, "[2]": {"system": "Aβ species, CHO-APP cells", "assay": "Mass spectrometric analysis of Aβ species produced from CHO-APP cells", "format": "cell-based, Chinese hamster", "conditions": "mass spectrometry, vs DMSO", "protocol": "Note that treatment leads to a decrease in Aβ42 species (1-42), and elevation in both Aβ37 (1-37) and Aβ38 (1-38). Mass spectrometric analysis of Aβ species were performed as previously described (Wang R, Sweeny D, Gandy S E, Sisodia S S. The profile of soluble amyloid β-protein in cultured cell media. J. Bio. Chem. 1996; 271: 31894-31902)."}, "[3]": {"system": "full-length APP and APP C-terminal fragments, Neuro2a-APPsw cells", "assay": "Western blot analysis of APP processing in neuro2a cells expressing APPsw", "format": "cell-based, mouse", "text": "FIG. 13. depicts an analysis of APP processing after Rk1 treatment. Steady-state levels of full-length APP and APP C-terminal fragments (APP-CTFs) were examined by Western blot analysis using anti-R1 antibody. […] Correlated Aβ42 levels for each sample are shown in the bottom panel."}, "[4]": {"system": "Aβ42 production, CHO-APP/ΔE9PS1 cells", "assay": "Secreted Aβ ELISA in CHO cells co-expressing human APP and FAD mutant PS1 (ΔE9, L286V)", "format": "cell-based, Chinese hamster", "protocol": "The effects of Rg5 on the Aβ42 generation were much smaller as compared to Rgk351 and Rk1.\nFIG. 10 depicts the effects of native ginsenosides on Aβ42 production. CHO cells stably transfected with human APP695 together with either wild-type (A, CHO-APP/PS1 cells) or ΔE9 FAD mutant (B, CHO-APP/ΔE9PS1 cells) forms of PS1 were used. Cells were treated with the indicated compounds (at 50 μM) for 8 hrs. Levels of secreted Aβ40 and Aβ42 in the medium were determined by ELISA and normalized to intracellular full-length APP. In CHO-APP/PS1 cells, average Aβ amounts in control samples were 320 pM for Aβ40 and 79 pM for Aβ42. The relative levels of Aβ and Aβ42 were normalized to values obtained from non-treated and vehicle-treated cells and are shown as % to control+s.d.). One of three representative experiments are shown.\nCHO-APP/PS1 (A) and CHO-APP/ΔE9PS1 (B) cells were treated with the indicated compounds at 50 μM for 8 hrs and the levels of secreted Aβ40 and Aβ42 were determined as described in FIG. 1. […] The PS1-ΔE9 FAD mutation diminished the Aβ42 response to Rk1 treatment (B)."}, "[5]": {"target": "γ-secretase (Homo sapiens, UniProt P49768)", "assay": "Cell-free γ-secretase assay (CHAPSO-solubilized membrane fractions, recombinant substrates, Aβ ELISA)", "format": "biochemical", "protocol": "(A) CHAPSO-solubilized membrane fractions were incubated with recombinant γ-secretase substrates together with the indicated compounds (at 100 μM) and the levels of Aβ42 and Aβ40 were determined by ELISA as described (27-29). (B) Dose-response of Aβ40 and Aβ42-lowering activity of Rk1 and (20S)Rg3 in a cell-free γ-secretase assay.\nNext, the inhibitory effects of Rk1 and (20S)Rg3 on Aβ generation in an in vitro γ-secretase assay was studied. […] In contrast, naproxen, an NSAID without Aβ42-lowering activity, had no effects on Aβ42 production (FIG. 15A)."}},
  "note": "Entries after “also recorded” stand apart in the source; their conditions may differ. Like-named read-outs stand apart in the source and are kept apart here.",
  "data": [
    {"smiles": "C=C(CCC=C(C)C)[C@H]1CC[C@]2(C)[C@@H]1[C@H](O)C[C@@H]1[C@@]3(C)CC[C@H](O[C@@H]4O[C@H](CO)[C@@H](O)[C@H](O)[C@H]4O[C@@H]4O[C@H](CO)[C@@H](O)[C@H](O)[C@H]4O)C(C)(C)[C@@H]3CC[C@]12C", "note": "[Rk1]", "values": [
      {"measurement": "cell-free generation of p75-ICD", "setting": "[1]", "result": "does not significantly affect; also recorded: not affected"},
      {"measurement": "Aβ37 (1-37)", "setting": "[2]", "result": "elevation"},
      {"measurement": "Aβ38 (1-38)", "setting": "[2]", "result": "elevation"},
      {"measurement": "Aβ42 species (1-42)", "setting": "[2]", "result": "decrease"},
      {"measurement": "full-length APP levels", "setting": "[3]; Neuro2a-APPsw cells", "result": "did not affect"},
      {"measurement": "APP C-terminal fragments, steady-state levels", "setting": "[3]; neuro2a cells expressing APPsw", "result": "increased accumulation; also recorded: up-regulated"},
      {"measurement": "Aβ42-lowering response in PS1 ΔE9 FAD mutant cells compared to PS1 wild-type cells", "setting": "[4]; 50 μM, 8 hrs, FIG. 11B vs 11A", "result": "diminished"},
      {"measurement": "Aβ42 levels", "setting": "[4]; CHO cells co-expressing human APP and FAD mutant presenilin 1 (delta E9, L286V), FIG. 8", "result": "reduced the Aβ42 levels"},
      {"measurement": "Aβ generation in a cell-free γ-secretase assay", "setting": "[5]; FIG. 15", "result": "inhibits Aβ generation"},
      {"measurement": "Aβ42 generation in vitro", "setting": "[5]; cell-free γ-secretase assay, FIG. 15 (100 μM in A)", "result": "inhibit the Aβ42 production; also recorded: potently inhibited"},
      {"measurement": "Aβ40 generation in vitro", "setting": "[5]; cell-free γ-secretase assay, FIG. 15B", "result": "inhibited both Aβ40 and Aβ42 with a similar potency"},
      {"measurement": "IC50", "setting": "[5]; cell-free γ-secretase assay, FIG. 15B, read-out: IC50 for Aβ40", "result": "27 ± 3", "unit": "µM"},
      {"measurement": "IC50", "setting": "[5]; cell-free γ-secretase assay, FIG. 15B, read-out: IC50 for Aβ42", "result": "32 ± 5", "unit": "µM"}
    ]}
  ]
}
